Here are results for 39 compounds from patent EP1202975B1, “SUBSTITUTED POLYCYCLIC ARYL AND HETEROARYL PYRAZINONES USEFUL FOR SELECTIVE INHIBITION OF THE COAGULATION CASCADE” (Pharmacia Corporation, priority 1999, dated 2000).

What is called pIC50 is the IC50 on a negative log10 scale, so that one unit is a factor of ten.

The structures appear in SMILES notation. pIC50: −log10 of the molar value. Where two headings read alike, the source gives them in different places.

One assay deals with Human factor Xa (Homo sapiens, UniProt P00742). The assay can be described thus: Xa Assay. The conditions noted are these: for IC50 or % Inhibition Factor Xa (30 µM): % inhibition at 30 µM.
The next assay concerns the target T1, TF-VIIa (Homo sapiens, UniProt P08709).
T1 construct: 2nM recombinant human factor VIIa; purchased American Diagnostica, Greenwich CT; host or cells: soluble TF made in house in E. coli
Put plainly: TF-VIIa Assay. The settings on record: for pIC50: cells given as a plain number (IC50), read-out: IC50 or % Inhibition TF-VIIa (30 µM); for IC50 or % Inhibition TF-VIIa (30 µM): % inhibition at 30 µM. The assay is classed as biochemical.

The mark [1] stands for this setting: read-out: IC50 or % Inhibition Factor Xa (30 µM), cells given as a plain number (IC50).

T1 sequence (P08709 213-466 limits assumed): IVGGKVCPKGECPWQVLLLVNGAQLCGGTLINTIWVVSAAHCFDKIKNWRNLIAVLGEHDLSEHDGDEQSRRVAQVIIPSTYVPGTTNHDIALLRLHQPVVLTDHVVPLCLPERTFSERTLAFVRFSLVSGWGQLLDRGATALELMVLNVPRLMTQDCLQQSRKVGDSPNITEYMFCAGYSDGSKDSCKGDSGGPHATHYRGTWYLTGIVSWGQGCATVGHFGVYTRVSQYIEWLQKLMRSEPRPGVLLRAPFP
T1 sequence (P08709 61-212 limits assumed): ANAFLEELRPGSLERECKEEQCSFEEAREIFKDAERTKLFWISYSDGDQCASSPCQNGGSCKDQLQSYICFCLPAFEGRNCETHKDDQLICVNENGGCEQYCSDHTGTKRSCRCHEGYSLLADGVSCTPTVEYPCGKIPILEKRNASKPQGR
T1 sequence (P13726 33-251 partner limits assumed): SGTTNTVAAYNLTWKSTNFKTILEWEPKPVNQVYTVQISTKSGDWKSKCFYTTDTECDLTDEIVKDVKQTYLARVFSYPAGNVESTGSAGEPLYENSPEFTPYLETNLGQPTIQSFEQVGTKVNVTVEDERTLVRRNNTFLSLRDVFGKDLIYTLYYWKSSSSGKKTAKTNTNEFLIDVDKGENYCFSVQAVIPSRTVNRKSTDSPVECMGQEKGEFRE
Sequence of Human factor Xa (P00742 235-488 limits assumed): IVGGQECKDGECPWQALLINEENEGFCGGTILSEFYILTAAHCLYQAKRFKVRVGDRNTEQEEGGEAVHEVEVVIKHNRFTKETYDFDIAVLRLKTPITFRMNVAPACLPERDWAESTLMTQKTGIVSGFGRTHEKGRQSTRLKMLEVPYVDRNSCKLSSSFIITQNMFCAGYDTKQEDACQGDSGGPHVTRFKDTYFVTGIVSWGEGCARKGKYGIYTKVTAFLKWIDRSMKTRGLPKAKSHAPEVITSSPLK
Sequence of Human factor Xa (P00742 41-179 limits assumed): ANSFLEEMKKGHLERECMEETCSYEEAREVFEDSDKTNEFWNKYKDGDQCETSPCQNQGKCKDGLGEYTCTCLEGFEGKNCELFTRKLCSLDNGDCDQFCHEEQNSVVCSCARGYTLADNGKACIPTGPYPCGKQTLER

Regarding `N=C(N)c1ccc(CNC(=O)Cn2c(-c3cccc(Cl)c3)c(Cl)nc(NCc3ccccc3)c2=O)cc1` [Example 23], the “IC50 or % Inhibition Factor Xa (30 µM)” value against Human factor Xa turned out to be 38%@30. Moreover, the pIC50 at TF-VIIa was 5.77.
`N=C(N)NCCCNc1nc(Cl)c(-c2ccccc2)n(CC(=O)NCc2ccc(C(=N)N)cc2)c1=O` [Example 47]: the pIC50 on Human factor Xa is 4.97; at TF-VIIa, 6.18.
With `N=C(N)NCCNc1nc(Cl)c(-c2ccccc2)n(CC(=O)NCc2ccc(C(=N)N)cc2)c1=O` [Example 48], on Human factor Xa, the “IC50 or % Inhibition Factor Xa (30 µM)” value is given as 20%. The pIC50 at TF-VIIa is 6.24.
Turning to `N=C(N)NCCCCNc1nc(Cl)c(-c2ccccc2)n(CC(=O)NCc2ccc(C(=N)N)cc2)c1=O` [Example 49], the pIC50 at Human factor Xa was 4.54; at TF-VIIa it was 6.24.
In the case of `N=C(N)CCNc1nc(Cl)c(-c2ccccc2)n(CC(=O)NCc2ccc(C(=N)N)cc2)c1=O` [Example 50], the “IC50 or % Inhibition Factor Xa (30 µM)” value on Human factor Xa was 39%. Besides, the negative logarithm of the IC50 (pIC50) at TF-VIIa is 6.30.
As to `N=C(N)c1ccc(CNC(=O)Cn2c(-c3ccccc3)c(Cl)nc(NCc3ccc(C(=N)N)cc3)c2=O)cc1` [Example 51], the pIC50 against Human factor Xa is 5.01; on TF-VIIa it was 6.19.
The matching figures for `N=C(N)c1ccc(CNC(=O)Cn2c(-c3ccccc3)c(Cl)nc(NCc3cccc(C(=N)N)c3)c2=O)cc1` [Example 52]: 4.62 and 6.23.
As for `N#CCCNc1nc(Cl)c(-c2ccccc2)n(CC(=O)NCc2ccc(C(=N)N)cc2)c1=O` [Example 53], at Human factor Xa, the “IC50 or % Inhibition Factor Xa (30 µM)” value was 7%. At TF-VIIa, the pIC50 is 6.52.
`CC(C)Nc1nc(Cl)c(-c2cccc(N)c2)n(CC(=O)NCc2ccc(C(=N)N)s2)c1=O` [Example 55]: the “IC50 or % Inhibition Factor Xa (30 µM)” value against Human factor Xa is given as 0%. The pIC50 at TF-VIIa was 6.82.
The like results for `CN(C)c1cccc(-c2c(Cl)nc(NCCc3ccccc3)c(=O)n2CC(=O)NCc2ccc(C(=N)N)cc2)c1` [Example 103] were, in that order, 11%@30 and 6.52.
Take `CNc1cccc(-c2c(Cl)nc(NC(C)C)c(=O)n2CC(=O)NCc2ccc(C(=N)N)cc2)c1` [Example 104]: the results for the negative-log IC50 (pIC50) at Human factor Xa and on TF-VIIa were less than 4.52 and 5.92, respectively.
Regarding `N=C(N)c1ccc(CNC(=O)Cn2c(-c3ccccc3)cnc(NC(=O)Nc3ccccc3)c2=O)cc1` [Example 106], the “IC50 or % Inhibition Factor Xa (30 µM)” value against Human factor Xa is on record as 30%. Moreover, the pIC50 on TF-VIIa was 5.95.
The like results for `N=C(N)c1ccc(CNC(=O)Cn2c(-c3ccccc3)cnc(NC(=O)Nc3cccc(N)c3)c2=O)cc1` [Example 107] were, in that order, 35% and 6.24.
The matching figures for `N=C(N)c1ccc(CNC(=O)Cn2c(-c3ccccc3)cnc(NC(=O)Nc3cc(Cl)cc(Cl)c3)c2=O)cc1` [Example 108]: 20% and 5.38.
The matching figures for `CC(C)NC(=O)Nc1ncc(-c2ccccc2)n(CC(=O)NCc2ccc(C(=N)N)cc2)c1=O` [Example 109]: 10% and 5.21.
In the case of `CC(C)Nc1nc(Cl)c(-c2cc(N)ccc2F)n(CC(=O)NCc2ccc(C(=N)N)cc2F)c1=O` [compound 73], the “IC50 or % Inhibition Factor Xa (30 µM)” value against Human factor Xa was 0%. Also, on TF-VIIa, the pIC50 was 7.52.
The matching figures for `CC(C)Nc1nc(Cl)c(-c2ccc(Cl)nc2)n(CC(=O)NCc2ccc(C(=N)N)cc2F)c1=O` [compound 74]: 13% and 5.49.
The matching figures for `CC(C)Nc1nc(Cl)c(-c2cccnc2)n(CC(=O)NCc2ccc(C(=N)N)cc2)c1=O` [compound 75]: 9% and 6.68.
Take `N=C(N)c1ccc(CNC(=O)Cn2c(-c3cccc([N+](=O)[O-])c3)c(Cl)nc(NCCc3ccccc3)c2=O)cc1` [compound 77]: the pIC50 was less than 4.52 at Human factor Xa (setting [1]) and 5.60 at TF-VIIa.
As for `Cc1ccccc1-c1c(Cl)nc(NCCc2ccccc2)c(=O)n1CC(=O)NCc1ccc(C(=N)N)cc1` [compound 78], the “IC50 or % Inhibition Factor Xa (30 µM)” value against Human factor Xa was 16%@30. The pIC50 at TF-VIIa is 6.37.
The matching figures for `N=C(N)c1ccc(CNC(=O)Cn2c(-c3cccc4ccccc34)c(Cl)nc(NCCc3ccccc3)c2=O)cc1` [compound 80]: 29%@30 and 5.89.
The like results for `Cc1cccc(-c2c(Cl)nc(NCCc3ccccc3)c(=O)n2CC(=O)NCc2ccc(C(=N)N)cc2)c1` [compound 81] were, in that order, 33%@30 and 6.00.
The matching figures for `N=C(N)c1ccc(CNC(=O)Cn2c(-c3ccc4ccccc4c3)c(Cl)nc(NCCc3ccccc3)c2=O)cc1` [compound 82]: 32%@30 and 4.70.
In the case of `Cc1cccc(-c2cnc(NCCc3ccccc3)c(=O)n2CC(=O)NCc2ccc(C(=N)N)cc2)c1` [compound 83], the pIC50 is less than 4.52 on Human factor Xa (setting [1]) and 6.12 on TF-VIIa.
Take `Cc1cccc(-c2cnc(NCCc3ccccc3)c(=O)n2CC(=O)NCc2ccc(C(=N)N)cc2)c1` [compound 84]: the pIC50 was less than 4.52 at Human factor Xa (setting [1]) and 5.52 at TF-VIIa.
Regarding `Cc1cccc(-c2cnc(NCCc3ccccc3)c(=O)n2CC(=O)NCc2ccc(C(=N)N)cc2)c1` [compound 85], the “IC50 or % Inhibition Factor Xa (30 µM)” value against Human factor Xa stood at 42%@30. The pIC50 on TF-VIIa was 6.06.
The like results for `N=C(N)c1ccc(CNC(=O)Cn2c(-c3cccc(N)c3)c(Cl)nc(NCCc3ccccc3)c2=O)cc1` [compound 86] were, in that order, 26%@30 and 7.15.
In the case of `N=C(N)c1ccc(CNC(=O)Cn2c(-c3cccc(N)c3)c(Cl)nc(NCCc3cccc(Cl)c3)c2=O)cc1` [compound 87], the pIC50 on Human factor Xa (setting [1]) was less than 4.52; on TF-VIIa, 7.15.
The like results for `N=C(N)c1ccc(CNC(=O)Cn2c(-c3cccc(N)c3)c(Cl)nc(NCc3ccccc3)c2=O)cc1` [compound 88] were, in that order, less than 4.52 and 7.00.
For the compound `Nc1cccc(-c2c(Cl)nc(NC3CCC3)c(=O)n2CC(=O)NCCc2ccccc2)c1` [compound 89], the “IC50 or % Inhibition Factor Xa (30 µM)” value against Human factor Xa is reported as 5%@30. Further, at TF-VIIa, the “IC50 or % Inhibition TF-VIIa (30 µM)” value amounted to 5%@30.
Regarding `N=C(N)c1ccc(CNC(=O)Cn2c(-c3cccc(N)c3)c(Cl)nc(NC3CCC3)c2=O)cc1` [compound 90], the “IC50 or % Inhibition Factor Xa (30 µM)” value against Human factor Xa was determined as 16%@30. Further, on TF-VIIa, the pIC50 was 7.70.
On to `N=C(N)NCCCC(NC(=O)Cn1c(-c2cccc(N)c2)c(Cl)nc(NCc2ccccc2)c1=O)C(=O)c1nccs1` (stereo not drawn) [compound 91], for which the pIC50 at Human factor Xa (setting [1]) was 5.15; on TF-VIIa, 7.15.
Regarding `N=C(N)c1ccc(CNC(=O)Cn2c(-c3cccc(N)c3)cnc(NC3CCC3)c2=O)cc1` [compound 92], the “IC50 or % Inhibition Factor Xa (30 µM)” value against Human factor Xa worked out at 18%@30. Further, at TF-VIIa, the pIC50 is 7.28.
Regarding `CC(C)(C)Nc1nc(Cl)c(-c2cccc(N)c2)n(CC(=O)NCc2ccc(C(=N)N)cc2)c1=O` [compound 93], the negative logarithm of the IC50 (pIC50) on Human factor Xa (setting [1]) is less than 4.52; at TF-VIIa it was 7.15.
For `CN(C)Nc1nc(Cl)c(-c2cccc(N)c2)n(CC(=O)NCc2ccc(C(=N)N)cc2)c1=O` [compound 94], the pIC50 on Human factor Xa (setting [1]) is less than 4.52; on TF-VIIa, 7.40.
The matching figures for `CNc1cccc(-c2c(Cl)nc(NC(C)C)c(=O)n2CC(=O)NCc2ccc(C(=N)N)cc2)c1` [compound 96]: less than 4.52 and 6.59.
The matching figures for `Cc1c(N)cccc1-c1c(Cl)nc(NC(C)C)c(=O)n1CC(=O)NCc1ccc(C(=N)N)cc1` [compound 97]: less than 4.52 and 7.40.
For the compound `Cc1c(N)cccc1-c1cnc(NC(C)C)c(=O)n1CC(=O)NCc1ccc(C(=N)N)cc1` [compound 98], the “IC50 or % Inhibition Factor Xa (30 µM)” value against Human factor Xa was determined as 10%@30. Further, at TF-VIIa, the pIC50 was 7.05.
As to `Nc1cccc(-c2c(Cl)nc(NC3CCC3)c(=O)n2CC(=O)NCc2ccccc2)c1` [compound 99], the “IC50 or % Inhibition Factor Xa (30 µM)” value at Human factor Xa came out at 8%@30. The “IC50 or % Inhibition TF-VIIa (30 µM)” value against TF-VIIa was determined as 6%@30.
